Conditions: 101.33 kPa, Liquid; for viscosity: Capillary tube (Ostwald / Ubbelohde) method

COC(C)(C)C [2-methoxy-2-methylpropane]
Conditions	mass density [kg/m3]	viscosity [mPa·s]
273.15 K	761.34	0.443
278.15 K	756.14	0.417
283.15 K	751.02	0.392
288.15 K	745.85	0.37
293.15 K	740.65	–
298.15 K	735.4	–
303.15 K	730.1	–
308.15 K	724.82	–
313.15 K	719.42	–
318.15 K	713.96	–

CCCCCCC [heptane]
Conditions	mass density [kg/m3]	viscosity [mPa·s]
273.15 K	700.75	0.526
278.15 K	696.59	0.495
283.15 K	692.42	0.465
288.15 K	688.22	0.438
293.15 K	684	0.415
298.15 K	679.75	0.392
303.15 K	675.48	0.372
308.15 K	671.19	0.354
313.15 K	666.86	0.336
318.15 K	662.5	–
323.15 K	658.11	–
328.15 K	653.68	–
333.15 K	649.22	–
338.15 K	644.72	–
343.15 K	640.17	–
348.15 K	635.58	–
353.15 K	630.41	–
358.15 K	626.34	–

CCCCCCCC [octane]
Conditions	mass density [kg/m3]	viscosity [mPa·s]
273.15 K	718.58	0.718
278.15 K	714.61	0.671
283.15 K	710.62	0.623
288.15 K	706.62	0.584
293.15 K	702.61	0.545
298.15 K	698.57	0.514
303.15 K	694.52	0.486
308.15 K	690.44	0.459
313.15 K	686.35	0.434
318.15 K	682.23	0.415
323.15 K	678.09	0.394
328.15 K	673.92	0.375
333.15 K	669.71	0.357
338.15 K	665.51	–
343.15 K	661.24	–
348.15 K	656.96	–
353.15 K	652.63	–
358.15 K	648.26	–
363.15 K	643.85	–
